Consider eleven molecules from US20250092058A1 (priority 2018, published 2025).

Like-named read-outs stand apart in the source and are kept apart here.

One data set deals with PDX10978. Nature of the data set: Pancreatic cancer PDX10978 in SCID mice. Conditions: FL118 0.75 mg/kg or gemcitabine 60 mg/kg ip qw×4. It is filed as in vivo. How it is done: Human pancreatic cancer patient-derived xenograft (PDX) tumor mouse model and treatment. Experiments followed the IACUC-approved mouse protocol. Briefly, human PDAC PDX tumors maintained on SCID mice were isolated, and a piece of non-necrotic tumor tissues (30-40 mg) were subcutaneously transplanted into the flank area of female SCID mice. […] In this study, we used the timesaving intraperitoneal (ip) route for drug administration. […] The formulation process was described in detail in our previous patent (PCT/US2011/058558). […] Tumor length (L) and width (W) were measured using digital vernier calipers 1-3 times per week until the end of experimental studies. The tumor volume (v) was calculated using the formula: v=0.5 (L×W^2). Then the tumor size was divided by the day 0 tumor size as percentage tumor size versus day 0. The mean tumor volume ± standard deviation (SD) at each time point was derived from 5 mice in each group. The tumor curves were made using Sigma Plot software.
It has been recently documented that pancreatic cancer PDXs retain active paracrine/Hedgehog signaling, and desmoplasia is active in PDX tumor mouse models.

Another data set deals with A2008. Briefly: MTT assay A2008. It is filed as cell-based. How it is done: (§1) MTT assays. […] Viable cells (2500 cells per well) were plated in each well in 96-well plates. After an overnight incubation, cells were treated with and without relevant drugs alone and in combination, respectively, at various concentrations and incubated for 72 hours. MTT, a colorimetric substrate, was added to a final concentration of 0.4 mg/ml to each well. Cells in 96-well plates were further incubated in a 5% CO2 incubator at 37° C. for 4 hours, and then the medium was aspirated. The MTT metabolic product formazan was solubilized by adding 200 ul of DMSO to each well. Absorbance in the relevant wells was measured at 570 nm using an Ultra Microplate Reader (Bio-Tek Instruments). Each experiment was performed at least in triplicate. IC50/EC50 values were calculated from a series of drug dose ranges for each analyzed compound, using GraphPad Prism 6 (GraphPad Software, Inc., La Jolla, CA).
(§2) The inhibition of cell growth and viability in various cancer cell types were tested using MTT assay for references.

The test system of another data set is UOK151. How it is done: as §1, §2
In a further data set the test system is UOK262. Here is the method:
as §1, §2

The test system of the next data set is PDX14244 and PDX27454. Nature of the data set: Pancreatic PDX14244 (left flank) and colorectal PDX27454 (right flank) in the same SCID mice. It is filed as in vivo. Here is the method: Human xenograft tumors used.
The vehicle is the same aqueous suspension without FL7N-1. Experimental SCID mice were subcutaneously implanted with 30-40 mg individual PDX tumors (isolated from maintenance mice) at the flank area (left side for PDX14244, and right side for PDX27454) of SCID mice. […] The animal model of PDX tumors was orally treated weekly for 3 times as shown with black arrows. […] Thus, FL7N-1 may be a priority candidate to be developed for treatment of children rare disease retinoblastoma.
The vehicle is the same think aqueous suspension without drug. Experimental SCID mice were subcutaneously implanted with 30-40 mg individual PDX tumors (isolated from maintenance mice) at the flank area (left side for PDX14244, and right side for PDX27454) of SCID mice. […] The animal model of PDX tumors was orally treated weekly for 3 times as shown with black arrows.
The vehicle is the same think aqueous suspension without drug. Experimental SCID mice were subcutaneously implanted with 30-40 mg individual PDX tumors (isolated from maintenance mice) at the flank area (left side for PDX14244, and right side for PDX27454) of SCID mice. […] The animal model of PDX tumors was orally treated weekly for 4 times (one cycle/course, as shown with black arrows).
The vehicle is the same think aqueous suspension without drug. Experimental SCID mice were subcutaneously implanted with 30-40 mg individual PDX tumors (isolated from maintenance mice) at the flank area (left side for PDX14244, and right side for PDX27454) of SCID mice. […] The animal model of PDX tumors was orally treated weekly for 3 times in two doses due to drug limitation then (as shown with black arrows).

A further data set deals with A549. Briefly: MTT assay A549. In kind it is cell-based, human. Conditions: Table 9. Here is the method:
(§3) MTT assays. […] Each experiment was performed at least in triplicate.

Another data set deals with SW620 xenograft tumors. Conditions: oral weekly for 1-2 times. An excerpt:
(§4) Human xenograft tumors used. In this invention disclose, human SW620 (colorectal), HT29 (colorectal) and HT-3 (retinoblastoma) cancer cell line-established xenograft tumors were used. Human tumor cell line-derived xenograft tumors are initially established by subcutaneously injecting 2-5×10^6 cultured cancer cells in a volume of 100-150 p L medium into the flank area of severe combined immunodeficiency (SCID) mice. The derived tumors are then passed a couple of generations in mice by transplanting 30-50 mg non-necrotic tumor mass via a trocar for experiments or maintenance. […] PDX tumors were originally established on severe Combined Immunodeficiency (SCID) mice from pancreatic and colorectal cancer patient tumor tissues obtained from metastatic sites of the disease in the clinic.
Human SW620 xenograft tumors were initially established by subcutaneously injection of 2-5×10^6 SW620 cells in a volume of 100-150 μL medium. Mouse models of SW620 xenografts were set up by subcutaneously inoculating 30-40 mg tumor tissue (isolated from tumor maintenance SCID mice) on the flank of SCID mice. Treatment with individual compounds was initiated 7-14 days after the transplanted tumors reached 100-200 mm^3 (designated day 0). The treatment schedule is weekly for 1-2 times in a series of dose levels based on the available drug amounts then. The individual compounds were formulated in an organic solvent-free with HPβCD in 2% HPMC (hydroxypropyl methylcellulose) and 1% PG (propylene glycol) in saline (a thick aqueous suspension) for oral administration. The vehicle is the same thick aqueous suspension without drug.

The next data set relates to HCT116. Briefly: MTT assay HCT116. It is filed as cell-based, human. Conditions: Table 8. How it is done:
as §3

Data set [1] has as its system HT-3 retinoblastoma xenograft tumors. Conditions: for antitumor activity and toxicity profile: oral, one time, 3-4 doses. How it is done: Human HT-3 retinoblastoma xenograft tumors were initially established by subcutaneously injection of 2-5×10^6 HT-3 cells in a volume of 100-200 μL medium. Mouse models of HT-3 xenografts were set up by subcutaneously inoculating 30-40 mg tumor tissue on the flank of SCID mice. Treatment with individual compounds was initiated 7-14 days after the transplanted tumors reached 100-200 mm^3 (designated day 0). […] The individual compounds were formulated in an organic solvent-free with HPPCD as drug carriers in 2% HPMC (hydroxypropyl methylcellulose) and 1% PG (propylene glycol) in saline (a thick aqueous suspension) for oral administration. The vehicle is the same thick aqueous suspension without drug. A. FL7s-3-treated xenograft tumor curve profile (left panel) and body weight profile (right panel) over the experimental period. B. FL7s-4-treated xenograft tumor curve profile (left panel) and body weight profile (right panel) over the experimental period. C. FL7s-7-treated xenograft tumor curve profile (left panel) and body weight profile (right panel) over the experimental period.
as §4
To these three novel compounds, we performed in vivo animal model studies to evaluate their antitumor activity and toxicity using the HT-3 retinoblastoma xenograft tumor models. In this experiment, we still took advantage of the newly developed formulation for oral administration of compounds.

The subject of another data set is UMUC-3. Here is the method:
as §1, §2

For a further data set, the system named is H1376. How it is done:
as §1, §2

In a further data set the test system is FaDu. Nature of the data set: MTT assay FaDu. In kind it is cell-based. Conditions: Table 5 lower part; FaDu head-and-neck cancer. Here is the method:
as §1, §2

In a further data set the test system is T24. Nature of the data set: MTT assay T24. In kind it is cell-based. Conditions: Table 5 lower part; T24 bladder cancer. How it is done:
as §1, §2

The test system of a further data set is HT-3. Briefly: MTT assay HT-3. In kind it is cell-based, human. Conditions: Table 5 lower part; HT-3 cervical carcinoma. How it is done:
as §1, §2

Another data set concerns RT4. Briefly: MTT assay RT4. It is filed as cell-based. Conditions: Table 5 lower part; RT4 bladder cancer. Here is the method:
as §1, §2

The mark [2] stands for this setting: oral one time, 5, 10 and 15 mg/kg.
Where [3] appears, read: Table 5 lower part, UMUC-3 bladder cancer.
Setting [4] is: Table 5 lower part, H1376 bladder cancer.
[5] abbreviates: Table 5 lower part, UOK151 kidney cancer.
Where [6] appears, read: Table 5 lower part, UOK262 kidney cancer.

`Nc1ccn([C@@H]2O[C@H](CO)[C@@H](O)C2(F)F)c(=O)n1` [gemcitabine, reference compound]: in the data set on PDX10978, the “antitumor efficacy, single agent” value is recorded as “only delayed tumor growth”.

For `CC[C@@]1(O)C(=O)OCc2c1cc1n(c2=O)Cc2c-1nc1cc3c(cc1c2-c1cc(C(F)(F)F)cc(C(F)(F)F)c1)OCO3` [W-b10/Hx7], the IC50/EC50 with A2008 (Table 9, A2008) is recorded as 7.31 nM; in the data set with UOK151 (Table 10, UOK151), >500 nM; with UOK262 (Table 10, UOK262), 33.4 nM; with A549, 5.29 nM. The “antitumor activity and toxicity, Hx-series” value in the data set on PDX14244 and PDX27454 (oral weekly for 3 times) was “much higher antitumor activity with favorable toxicity”.

With `CC[C@@]1(O)C(=O)OCc2c1cc1n(c2=O)Cc2c-1nc1cc3c(cc1c2-c1ccoc1)OCO3` [W-b3], the IC50/EC50 in the data set with A2008 (Table 9, A2008) is reported as 16.15 nM; in the data set on A549, 0.92 nM. The antitumor activity result in the data set on SW620 xenograft tumors is “much higher antitumor activity than the other compounds in this Wb-series”.

`CC[C@@]1(O)C(=O)OCc2c1cc1n(c2=O)Cc2c-1nc1cc3c(cc1c2CCN1CCCCC1C)OCO3` (some centres unmarked) [Compound 7N2] yielded an IC50/EC50 in the data set with HCT116 of 25.62 nM. Also, in data set [1], the “antitumor activity and toxicity profile” value was “great antitumor activity and favorable toxicity profiles”.

With `CC[C@@]1(O)C(=O)OCc2c1cc1n(c2=O)Cc2c-1nc1cc3c(cc1c2-c1ccc(F)c(F)c1)OCO3` [HX6], the IC50/EC50 was 4.6 nM in the data set on UOK151 (Table 10, UOK151) and 4.9 nM in the data set on UOK262 (Table 10, UOK262). The “antitumor activity and toxicity, Hx-series” value in the data set with PDX14244 and PDX27454 (oral weekly for 3 times) was “much higher antitumor activity with favorable toxicity”.

As to `CC[C@@]1(O)C(=O)OCc2c1cc1n(c2=O)Cc2c-1nc1cc3c(cc1c2-c1cccs1)OCO3` [W-b6], the IC50/EC50 is 11.1 nM in the data set on A2008 (Table 9, A2008) and 1.2 nM in the data set on A549. Further, in the data set with SW620 xenograft tumors, the antitumor activity result is on record as “much higher antitumor activity than the other compounds in this Wb-series”.

With `CC[C@@]1(O)C(=O)OCc2c1cc1n(c2=O)Cc2c-1nc1cc3c(cc1c2CCN1CCOCC1)OCO3` [Compound 7N1, 20 (S)-7-morpholinylethyl-10,11-methylenedioxy-camptothecin], the IC50/EC50 in the data set on HCT116 is 11.6 nM; in the data set with UMUC-3 (Table 8, UMUC-3), 2.05 nM; in the data set on H1376 (Table 8, H1376), >500 nM; in the data set on UOK151 (Table 8, UOK151), 42.8 nM; in the data set with UOK262 (Table 8, UOK262), 38 nM. The antitumor activity result in [1] (setting [2]) was “exceptional antitumor activity in all three doses used”; with PDX14244 and PDX27454 (oral weekly for 3 times) it was “very good”. The “toxicity (mouse body weight loss)” value in [1] (setting [2]) is reported as “without showing toxicity”. Besides, in data set [1], the “antitumor activity and toxicity profile” value was “great antitumor activity and favorable toxicity profiles”.

Turning to `CC[C@@]1(O)C(=O)OCc2c1cc1n(c2=O)Cc2cc3c(CN(C)C)c(O)ccc3nc2-1` [Topotecan, reference compound], the IC50/EC50 is listed as 26.63 nM with FaDu; 37.2 nM in the data set on T24; 46.1 nM in the data set on A2008 (Table 5 lower part, A2008 ovarian cancer); 83.42 nM with HT-3; 52.8 nM in the data set on UMUC-3 (setting [3]); 52.8 nM with UMUC-3 (Table 8, UMUC-3). For the same molecule, the IC50/EC50 in the data set with H1376 (setting [4]) was >500 nM; in the data set on H1376 (Table 8, H1376), >500 nM; with UOK151 (setting [5]), >200 nM; in the data set on UOK151 (Table 8, UOK151) it was >200 nM; in the data set with UOK151 (Table 10, UOK151), >200 nM; with UOK262 (setting [6]) it was >200 nM. The IC50/EC50 with UOK262 (Table 8, UOK262) is reported as >200 nM; in the data set with UOK262 (Table 10, UOK262) it was >200 nM; in the data set on RT4, 96.4 nM.

`CC[C@@]1(O)C(=O)OCc2c1cc1n(c2=O)Cc2c-1nc1cc3c(cc1c2-c1ccc(OC)cc1)OCO3` [7Q 9]: the IC50/EC50 is given as 0.32 nM with T24; 0.35 nM with UMUC-3 (setting [3]); >500 nM in the data set on H1376 (setting [4]); 50 nM with UOK151 (setting [5]); 32 nM in the data set on UOK262 (setting [6]); 3.37 nM with RT4. Also, the “antitumor activity, 7Q-series (1)” value in the data set on PDX14244 and PDX27454 (oral weekly for 4 times) is listed as “much higher antitumor activity than the other compounds in this 7Q-series (1)”.

Consider `CC[C@@]1(O)C(=O)OCc2c1cc1n(c2=O)Cc2c-1nc1cc3c(cc1c2-c1cccnc1)OCO3` [W-b2], for which the IC50/EC50 with A2008 (Table 9, A2008) worked out at 4.6 nM; with A549, 2.24 nM. The antitumor activity entry in the data set with SW620 xenograft tumors is reported as “much higher antitumor activity than the other compounds in this Wb-series”.

With `CC[C@@]1(O)C(=O)OCc2c1cc1n(c2=O)Cc2c-1nc1cc3c(cc1c2CCN1CCSCC1)OCO3` [Compound 7N3, 20 (S)-7-thiomorpholinylethyl-10,11-methylenedioxy-camptothecin], the IC50/EC50 in the data set with HCT116 turned out to be 171.9 nM. Further, the “antitumor activity and toxicity profile” value in data set [1] is “great antitumor activity and favorable toxicity profiles”.
